According to patent US12649719B2, “Modulators of hemoglobin” (Global Blood Therapeutics, Inc., priority 2020, dated 2026):

Key:
[1] = target: T1, Hb (Homo sapiens, UniProt P68871+P69905); assay: Whole blood assay: oxygen equilibrium curves (Hemox Analyzer), change in O2 affinity of Hb; type: cell-based; details: whole blood incubated 1 h at 37° C., equimolar ratio of hemoglobin to compound; sodium salts of 2B (Enantiomer 1), 4B, 5B used
T1 construct: from tissue
Method: Oxygen equilibrium curves (OECs) were collected using a TCS Hemox Analyzer (TCS Scientific Company, New Hope, PA, USA) to measure changes in the binding affinity of O2 to Hb. Whole blood was incubated for 1 h at 37° C. with the indicated compounds in an equimolar ratio of hemoglobin to compound and diluted into TES (2-[[1,3-dihydroxy-2-(hydroxymethyl)propan-2-yl]amino]ethanesulfonic acid)/saline buffer prior to measurements. The diluted samples were then oxygenated with compressed air within the Hemox Analyzer and the OECs were collected during deoxygenation as previously described (Guarnone et al., Haematologica, 1995, 80, 426-430). p 50 (partial pressure of 02 at which Hb is 50% saturated with 02) values were obtained using a non-linear regression analysis. Percentage change in p 50 [Δp50(%)]was calculated as follows: Δp50(%)=[(p 50 of control)-p 50 with compound)/p 50 control]x 100. The sodium salts of compounds 2B (Enantiomer 1), 4B, and 5B described above were used.

[2] = Rat PK, oral gavage; type: in vivo; details: fasted male Sprague-Dawley rats, oral gavage 2 mg/kg and/or 10 mg/kg, sodium salt of 5B used; for T1/2: blood; for half-life: male, Sprague-Dawley, rat, whole blood, po
Method: A group of fasted male Sprague-Dawley rats were dosed via oral gavage at 2 mg/kg and/or 10 mg/kg with test articles formulated in 0.5% methylcellulose suspension with 0.01% polysorbate 80 in PBS (phosphate buffered saline). Blood samples were collected through jugular vein at pre-selected time points. Blood samples were prepared by protein precipitation with ACN, vortexed and then centrifuged before supernatants were transferred for bioanalysis. Test article concentrations were measured by HPLC-MS-MS. Pharmacokinetic parameters were calculated using non-compartment analysis. The T1/2 was calculated via a linear regression of the terminal phase of the blood-time concentration profile.
Results for various compounds disclosed herein (sodium salt of compound 5B described above was used) and select reference compounds (Compound A and Compound B) are summarized in Table 5A and Table 5B.

T1 sequence (P69905 2-142 limits assumed): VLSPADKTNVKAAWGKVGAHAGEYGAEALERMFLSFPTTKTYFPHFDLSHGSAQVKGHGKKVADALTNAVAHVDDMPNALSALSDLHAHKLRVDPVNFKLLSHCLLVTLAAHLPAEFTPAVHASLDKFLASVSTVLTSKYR
T1 sequence (P68871 2-147 limits assumed): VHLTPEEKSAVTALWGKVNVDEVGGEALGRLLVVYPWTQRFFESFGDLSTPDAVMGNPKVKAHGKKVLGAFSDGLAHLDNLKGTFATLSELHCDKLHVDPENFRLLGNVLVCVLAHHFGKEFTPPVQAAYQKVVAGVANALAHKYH

Compound | Delta-p50 (%) [1] [%] | T1/2 [2] [h] | half-life [2] [h]
O=Cc1c(O)cccc1OCC1CSCCN1C(=O)c1ccccc1C(=O)O (single isomer, unassigned) [Compound 5A (Enantiomer 2), 2-(3-((2-formyl-3-hydroxyphenoxy)methyl)thiomorpholine-4-carbonyl)benzoic acid] | 19.57 | 13 | –
O=Cc1c(O)cccc1OC[C@@H]1COCCN1C(=O)c1cccnc1CC(=O)O [Compound 4B, 2-{3-[(3S)-3-[(2-formyl-3-hydroxyphenoxy)methyl]morpholine-4-carbonyl]pyridin-2-yl} acetic acid] | −8.28 | – | –
O=Cc1c(O)cccc1OC[C@@H]1CCCCN1C(=O)c1ccccc1CC(=O)O [Compound 4A, 2-{2-[(2S)-2-[(2-formyl-3-hydroxyphenoxy)methyl]piperidine-1-carbonyl]phenyl} acetic acid] | 63.6 | – | 89.2
O=Cc1c(O)cccc1OC[C@@H]1COCCN1C(=O)c1ccccc1CC(=O)O [Compound 3A, 2-{2-[(3S)-3-[(2-formyl-3-hydroxyphenoxy)methyl]morpholine-4-carbonyl]phenyl}acetic acid] | 11.72 | – | –
O=Cc1c(O)cccc1OC[C@@H]1COCCN1C(=O)c1cccnc1C(=O)O [Compound 3B, 3-[(3S)-3-[(2-formyl-3-hydroxyphenoxy)methyl]morpholine-4-carbonyl]pyridine-2-carboxylic acid] | 0.65 | – | –
O=Cc1c(O)cccc1OC[C@@H]1COCCN1C(=O)c1ccccc1C(=O)O [Compound 2A, 2-[(3S)-3-[(2-formyl-3-hydroxyphenoxy)methyl]morpholine-4-carbonyl]benzoic acid] | 4.19 | – | –
O=Cc1c(O)cccc1OC[C@@H]1COCCN1C(=O)c1ccccc1CCC(=O)O [Compound 8A, 3-{2-[(3S)-3-[(2-formyl-3-hydroxyphenoxy)methyl]morpholine-4-carbonyl]phenyl} propanoic acid] | 55.01 | – | 102
O=Cc1c(O)cccc1OCC1CSCCN1C(=O)c1cccnc1CC(=O)O (single isomer, unassigned) [Compound 2B (Enantiomer 1), 2-{3-[3-[(2-formyl-3-hydroxyphenoxy)methyl]thiomorpholine-4-carbonyl]pyridin-2-yl} acetic acid] | 10.72 | – | –
O=Cc1c(O)cccc1OC[C@@H]1CSCCN1C(=O)c1ccccc1CCC(=O)O [Compound 9A, 3-{2-[(3R)-3-[(2-formyl-3-hydroxyphenoxy)methyl]thiomorpholine-4-carbonyl]phenyl}propanoic acid] | 46.78 | – | 88.7
O=Cc1c(O)cccc1OC[C@@H]1CCCCN1C(=O)c1ccccc1 [Reference Compound A, reference compound] | – | – | 25.9
O=Cc1c(O)cccc1OC[C@@H]1COCCN1C(=O)c1ccccc1 [Reference Compound B, reference compound] | – | – | 29.8
O=Cc1c(O)cccc1OCC1CSCCN1C(=O)c1ccccc1CC(=O)O (stereo not drawn) [Compound 6A, 2-(2-{3-[(2-formyl-3-hydroxyphenoxy)methyl]thiomorpholine-4-carbonyl}phenyl)acetic acid] | 5.09 | – | –
O=Cc1c(O)cccc1OC[C@@H]1CCCCN1C(=O)c1ccccc1C(=O)O [Compound 1A, 2-[(2S)-2-[(2-formyl-3-hydroxyphenoxy)methyl]piperidine-1-carbonyl]benzoic acid] | 66.43 | – | 110
O=Cc1c(O)cccc1OCC1CSCCN1C(=O)c1ccccc1C(=O)O (single isomer, unassigned) [Compound 5A (Enantiomer 1), 2-(3-((2-formyl-3-hydroxyphenoxy)methyl)thiomorpholine-4-carbonyl) benzoic acid] | 11.04 | 213 | –
O=Cc1c(O)cccc1OC[C@@H]1CCCCN1C(=O)c1ccccc1CCC(=O)O [Compound 7A, 3-{2-[(2S)-2-[(2-formyl-3-hydroxyphenoxy)methyl]piperidine-1-carbonyl]phenyl}propanoic acid] | 77.13 | – | 52
O=Cc1c(O)cccc1OC[C@@H]1CCCCN1C(=O)c1cccnc1CC(=O)O [Compound 5B, (S)-2-(3-(2-((2-formyl-3-hydroxyphenoxy)methyl)piperidine-1-carbonyl)pyridin-2-yl)acetic acid] | −3.32 | – | 120
O=Cc1c(O)cccc1OC[C@@H]1CCCCN1C(=O)c1cccnc1C(=O)O [Compound 1B, 3-[(2S)-2-[(2-formyl-3-hydroxyphenoxy)methyl]piperidine-1-carbonyl]pyridine-2-carboxylic acid] | 0.4 | – | 11.7
O=Cc1c(O)cccc1OCC1CSCCN1C(=O)c1cccnc1C(=O)O (single isomer, unassigned) [Compound 6B (Enantiomer 1), 3-[3-[(2-formyl-3-hydroxyphenoxy)methyl]thiomorpholine-4-carbonyl]pyridine-2-carboxylic acid] | 14.15 | – | –
